# Experimental data published in US7098001B2, “Polypeptides having dipeptidyl aminopeptidase activity and nucleic acids encoding same” (Novozymes, Inc., priority 1997, dated 2006).
# Where a SMILES comes first, the peptide text is derived from it. The star is where a group is joined. pNA = O=[N+]([O-])c1ccc(N*)cc1
# B1: dipeptidyl aminopeptidase I (Aspergillus oryzae RIB40) (protein)
# chain: LDVPRKPHAPTGEGSKRLTFNETVVKQAITPTSRSVQWLSGAEDGSYVYAAEDGSLTIENIVTNESRTLIPADKIPTGKEAFNYWIHPDLSSVLWASNHTKQYRHSFFADYYVQDVESLKSVPLMPDQEGDIQYAQWSPVGNTIAFVRENDLYVWDNGTVTRITDDGGPDMFHGVPDWIYEEEILGDRYALWFSPDGEYLAYLSFNETGVPTYTVQYYMDNQEIAPAYPWELKIRYPKVSQTNPTVTLSLLNIASKEVKQAPIDAFESTDLIIGEVAWLTDTHTTVAAKAFNRVQDQQKVVAVDTASNKATVISDRDGTDGWLDNLLSMKYIGPIKPSDKDAYYIDISDHSGWAHLYLFPVSGGEPIPLTKGDWEVTSILSIDQERQLVYYLSTQHHSTERHLYSVSYSTFAVTPLVDDTVAAYWSASFSANSGYYILTYGGPDVPYQELYTTNSTKPLRTITDNAKVLEQIKDYALPNITYFELPLPSGETLNVMQRLPPGFSPDKKYPILFTPYGGPGAQEVTKRWQALNFKAYVASDSELEYVTWTVDNRGTGFKGRKFRSAVTRQLGLLEAEDQIYAAQQAANIPWIDADHIGIWGWSFGGYLTSKVLEKDSGAFTLGVITAPVSDWRFYDSMYTERYMKTLSTNEEGYETSAVRKTDGFKNVEGGFLIQHGTGDDNVHFQNSAALVDLLMGDGVSPEKLHSQWFTDSDHGISYHGGGVFLYKQLARKLYQEKNRQTQVLMHQWTKKDLEE
# What was measured:
# Type in all cases: biochemical
# [1] = target: dipeptidyl aminopeptidase I (Aspergillus oryzae, UniProt Q2UH35); experiment: relative activity on mono-, di- and tri-peptide para-nitroanilide substrates; conditions: enzyme diluted 100-fold, pH 7.5, ambient temperature; for Activity (mOD/min): substrate 2 mg/ml stock
# Description: The relative activity of various mono-, di-, and tri-peptide para-nitroanilide substrates were assayed relative to Ala-Pro-pNA with the purified dipeptidyl aminopeptidase I diluted 100-fold in 50 mM sodium phosphate pH 7.5 buffer. Each substrate was dissolved in DMSO to a concentration of 100 mg/ml and then diluted 50 fold in 50 mM sodium phosphate pH 7.5 buffer to 2 mg/ml. The assay was performed by mixing 100 μl of the substrate solution with 100 μl of the dipeptidyl aminopeptidase I solution and monitoring the change in absorbance at 405 nm and ambient temperature.
# [2] = substrate: C[C@H](N)C(=O)N[C@@H](C)C(=O)Nc1ccc([N+](=O)[O-])cc1; experiment: kinetic parameters (Lineweaver-Burke plot) for dipeptidyl aminopeptidase I substrates; conditions: other: 50 mM sodium phosphate pH 7.5
# Description: (§1) The kinetic parameters for various dipeptidyl aminopeptidase I substrates was determined using the following protocol. The substrates included Ala-Pro-pNA, Asp-Pro-pNA, and Ala-Ala-pNA. Purified dipeptidyl aminopeptidase I with an A280 of 1.521 was diluted 25-fold for Ala-Pro-pNA, 20-fold for Asp-Pro-pNA, and 10-fold for Ala-Ala-pNA in water. Each substrate was dissolved in DMSO to a concentration of 100 mg/ml and then diluted 50 fold in 50 mM sodium phosphate pH 7.5 buffer to 2 mg/ml. In a 96 well microtiter plate, 10 μl of purified dipeptidyl aminopeptidase I was incubated with each substrate as follows except the 200 μl substrate assay was not performed with the Asp-Pro-pNA substrate, and the absorbance at 405 nm was measured for 3 minutes: • 1. 200 μl of 2 mg/ml substrate+0 μl of 50 mM sodium phosphate buffer pH 7.5 • 2. 100 μl of 2 mg/ml substrate+100 μl of 50 mM sodium phosphate buffer pH 7.5 • 3. 50 μl of 2 mg/ml substrate +150 μl of 50 mM sodium phosphate buffer pH 7.5 • 4. 25 μl of 2 mg/ml substrate+175 μl of 50 mM sodium phosphate buffer pH 7.5 • 5. 10 μl of 2 mg/ml substrate+190 μl of 50 mM sodium phosphate buffer pH 7.5 • 6. 5 μl of 2 mg/ml substrate+195 μl of 50 mM sodium phosphate buffer pH 7.5
# [3] = substrate: C[C@H](N)C(=O)N1CCC[C@H]1C(=O)Nc1ccc([N+](=O)[O-])cc1; experiment: as above; conditions: other: 50 mM sodium phosphate pH 7.5
# Description: as §1
# [4] = substrate: N[C@@H](CC(=O)O)C(=O)N1CCC[C@H]1C(=O)Nc1ccc([N+](=O)[O-])cc1; experiment: as above; conditions: other: 50 mM sodium phosphate pH 7.5
# Description: as §1
Molecule,Percent Activity Retative to Ala-Pro-pNA [1] [%],Activity (mOD/min) [1] [mOD/min],further results
NCC(=O)N[C@@H](CCCN=C(N)N)C(=O)Nc1ccc([N+](=O)[O-])cc1 [Gly-Arg-pNA] (H-Gly-Arg-pNA),0,0,–
NCC(=O)N1CCCC1C(=O)Nc1ccc([N+](=O)[O-])cc1 (stereo not drawn) [Gly-Pro-pNA],51.25,125,–
CC(C)[C@H](N)C(=O)N[C@@H](C)C(=O)Nc1ccc([N+](=O)[O-])cc1 [Val-Ala-pNA] (H-Val-Ala-pNA),20.3,49.5,–
NCC(=O)N[C@@H](CCC(=O)O)C(=O)Nc1ccc([N+](=O)[O-])cc1 [Gly-Glu-pNA] (H-Gly-Glu-pNA),0,<2,–
N=C(N)NCCC[C@H](N)C(=O)N1CCC[C@H]1C(=O)Nc1ccc([N+](=O)[O-])cc1 [Arg-Pro-pNA] (H-Arg-Pro-pNA),42.17,103,–
C[C@H](N)C(=O)N[C@@H](C)C(=O)Nc1ccc([N+](=O)[O-])cc1 [Ala-Ala-pNA] (H-Ala-Ala-pNA),12.4,30.2,–
C[C@H](N)C(=O)N[C@@H](C)C(=O)N1CCC[C@H]1C(=O)Nc1ccc([N+](=O)[O-])cc1 [Ala-Ala-Pro-pNA] (H-Ala-Ala-Pro-pNA),4.3,10.6,–
C[C@H](N)C(=O)N1CCC[C@H]1C(=O)Nc1ccc([N+](=O)[O-])cc1 [Ala-Pro-pNA] (H-Ala-Pro-pNA),100,244,–
N[C@@H](CC(=O)O)C(=O)N1CCC[C@H]1C(=O)Nc1ccc([N+](=O)[O-])cc1 [Asp-Pro-pNA] (H-Asp-Pro-pNA),29,70.95,–
CC(C)C[C@H](N)C(=O)Nc1ccc([N+](=O)[O-])cc1 [Leu-pNA],0,0,–
C[C@H](N)C(=O)Nc1ccc([N+](=O)[O-])cc1 [Ala-pNA],0,0,–
B1,–,–,Km [2]: 1080 µM; kcat [2]: 1.775 s⁻¹; Km [3]: 140 µM; kcat [3]: 9.605 s⁻¹; Km [4]: 632 µM; kcat [4]: 4.072 s⁻¹
